Data: US10940149B1, “Kinase inhibitor salts and compositions thereof” (HANDA ONCOLOGY, LLC, priority 2018, dated 2021)
Structures can show the parent of a compound that is named as a salt. Blank lines part the entries; values can stand above or below the compound they belong to.

Tests used:
[1] = solubility of dasatinib salts at 37° C., HPLC (Example 47A); format: physicochemical; settings: for solubility: thermodynamic from solid
Method: (§1) The reaction mass was filtered and the filtrate solution was measured by HPLC.

[2] = solubility of nintedanib salts at room temperature, HPLC (Example 25A); format: physicochemical; settings: thermodynamic from solid
Method: as §1

[3] = HPLC impurity and stability of dasatinib lauryl sulfate salts and capsules (Example 54); format: physicochemical
Method: The RRT was determined using HPLC with the following parameters:
The mobile phase A was 0.05 M aqueous Ammonium Acetate (pH 5.25)/Acetonitrile/Methanol in a volume ratio of 90/5/5.
The mobile phase B was 0.05 M aqueous Ammonium Acetate (pH 5.25)/Acetonitrile/Methanol in a volume ratio of 10/85/5.
Additional methanol is added so the test sample is approximately 0.20 mg of dasatinib per mL.

physchem = settings: 37 °C, pH 1, simulated gastric fluid, thermodynamic from solid
Method: as §1

[4] = HPLC impurity and stability of nilotinib lauryl sulfate salts and dosage forms (Example 62); format: physicochemical
Method: Mobile phase A was 0.25% Formic Acid/acetonitrile in a volume ratio of 90/10.
Mobile phase B was 0.1% Formic Acid/acetonitrile in a volume ratio of 10/90.
Additional diluent is added so the test sample is approximately 0.10 mg of nilotinib per mL.
The test sample of the dosage forms prepared in Examples 60 F and 60 G were prepared by the following procedure:
1. Cut the tip of the capsule with scissors and squeeze the contents from the hole into the 100-mL volumetric flask. Cut the capsule into two parts and add the parts to the flask. Add 80% full of ethanol, sonicate for 10 minutes and stir at 800 rpm for 30 minutes to dissolve the contents completely.
2. Dilute to volume with ethanol, mix well by inverting the flask NLT 10 times
3. Pipette 3 ml into 25-mL amber volumetric flask and add ethanol to volume, mix well by inverting the flask NLT 10 times. The test sample is approximately 0.096 mg of nilotinib per mL.
The nilotinib dilauryl sulfate salt prepared in Example 26 were tested for impurities and stability using HPLC with the following parameters:
The test sample of the nilotinib dilauryl sulfate salt prepared in Example 26 were prepared by weighing about 10 mg of nilotinib dilauryl sulfate (equivalent to 5 mg of nilotinib) and transfer into a 25-mL amber volumetric flask, adding 20 mL of diluent (ethanol), sonicating for about 5 minutes and stirring at 800 rpms for about 5 minutes until the nilotinib dilauryl sulfate is dissolved. Additional diluent is added so the test sample is approximately 0.20 mg of nilotinib per mL.

[5] = solubility of nilotinib salts, HPLC (Example 38A); format: physicochemical; settings: 37 °C, pH 1, simulated gastric fluid, thermodynamic from solid
Method: as §1

[6] = 60° C./75% R.H. 1 week, HDPE bottle, HPLC Inertsil ODS-3 (NLB-2LS method)
[7] = Room temp., HPLC Inertsil ODS-3 (NLB-2LS method)

aqueous solubility, pH dependence [1]: varied with pH | solubility ([1]; aqueous buffer, 0.05M acetate buffer, pH = 4.5): 86.9 µg/mL | solubility ([1]; aqueous buffer, 0.05M phosphate buffer, pH = 6.8): 0.18 µg/mL | solubility ([1]; simulated gastric fluid, 0.1N HCl, pH = 1.0): 654 µg/mL
Compound: Cc1nc(Nc2ncc(C(=O)Nc3c(C)cccc3Cl)s2)cc(N2CCN(CCO)CC2)n1 [dasatinib]

solubility ([2]; aqueous buffer, 0.05 M acetate buffer, pH = 4.5): 6260 µg/mL | solubility ([2]; aqueous buffer, 0.05 M phosphate buffer, pH = 6.8): 2.2 µg/mL | solubility ([2]; simulated gastric fluid, 0.1 N HCl, pH = 1.0): 107000 µg/mL
Compound: COC(=O)c1ccc2c(c1)NC(=O)/C2=C(\Nc1ccc(N(C)C(=O)CN2CCN(C)CC2)cc1)c1ccccc1 [nintedanib esylate]

Compound: CCCCCCCCCCCCOS(=O)(=O)O.CCCCCCCCCCCCOS(=O)(=O)O.Cc1nc(Nc2ncc(C(=O)Nc3c(C)cccc3Cl)s2)cc(N2CCN(CCO)CC2)n1 [Example 13, dasatinib dilauryl sulfate]
impurity at RRT 0.87 ([3]; 40° C./75% R.H., 1 Month): 0.06 | impurity at RRT 0.94 (DAS PIP) ([3]; 40° C./75% R.H., 1 Month): 0.09 | impurity at RRT 0.96 ([3]; 40° C./75% R.H., 1 Month): 0.14 | impurity at RRT 1.31 (DAS-6) ([3]; 40° C./75% R.H., 1 Month): 0.04 | impurity at RRT 0.87 ([3]; Initial): 0.06 | impurity at RRT 0.94 (DAS PIP) ([3]; Initial): 0.09 | impurity at RRT 0.96 ([3]; Initial): 0.13 | impurity at RRT 1.31 (DAS-6) ([3]; Initial): 0.02

solubility (physchem): 3360 µg/mL
Compound: Cc1ccc(Nc2nccc(N(C)c3ccc4c(C)n(C)nc4c3)n2)cc1S(N)(=O)=O [Pazopanib Hydrochloride, pazopanib hydrochloride]

Compound: CCCCCCCCCCCCOS(=O)(=O)O.CCCCCCCCCCCCOS(=O)(=O)O.Cc1cn(-c2cc(NC(=O)c3ccc(C)c(Nc4nccc(-c5cccnc5)n4)c3)cc(C(F)(F)F)c2)cn1 [Example 26, nilotinib dilauryl sulfate]
impurity at RRT 0.81 [4, 6]: 0.05% | impurity at RRT 1.09 [4, 6]: 0.07% | impurity at RRT 1.16 [4, 6]: 0.11% | impurity at RRT 1.28 [4, 6]: 0.08% | impurity at RRT 1.09 [4, 7]: 0.07% | impurity at RRT 1.16 [4, 7]: 0.10% | impurity at RRT 1.28 [4, 7]: 0.02%

Compound: Cc1cn(-c2cc(NC(=O)c3ccc(C)c(Nc4nccc(-c5cccnc5)n4)c3)cc(C(F)(F)F)c2)cn1 [Nilotinib HCl]
solubility [5]: 3800 µg/mL

Compound: CCCCCCCCCCCCOS(=O)(=O)O.Cc1cn(-c2cc(NC(=O)c3ccc(C)c(Nc4nccc(-c5cccnc5)n4)c3)cc(C(F)(F)F)c2)cn1 [Example 46, nilotinib monolauryl sulfate]
impurity at RRT 1.16 ([4]; 60° C./75% R.H. 2 weeks, HDPE bottle, HPLC Xterra RP18 (NLB-1LS method)): 0.07% | impurity at RRT 1.16 ([4]; Room temp., HPLC Xterra RP18 (NLB-1LS method)): 0.07%

Compound: CCCCCCCCCCCCOS(=O)(=O)O.Cc1nc(Nc2ncc(C(=O)Nc3c(C)cccc3Cl)s2)cc(N2CCN(CCO)CC2)n1 [Example 12, dasatinib monolauryl sulfate]
impurity at RRT 0.96 ([3]; 40° C./75% R.H., 1 Month): 0.09 | impurity at RRT 1.10 (2-Chloro-6-methylaniline) ([3]; 40° C./75% R.H., 1 Month): 0.04 | impurity at RRT 1.31 (DAS-6) ([3]; 40° C./75% R.H., 1 Month): 0.02 | impurity at RRT 0.87 ([3]; 40° C./75% R.H., 3 Months): 0.02 | impurity at RRT 0.94 (DAS PIP) ([3]; 40° C./75% R.H., 3 Months): 0.03 | impurity at RRT 0.96 ([3]; 40° C./75% R.H., 3 Months): 0.10 | impurity at RRT 1.10 (2-Chloro-6-methylaniline) ([3]; 40° C./75% R.H., 3 Months): 0.03 | impurity at RRT 1.31 (DAS-6) ([3]; 40° C./75% R.H., 3 Months): 0.03 | impurity at RRT 0.87 ([3]; Initial): 0.02 | impurity at RRT 0.94 (DAS PIP) ([3]; Initial): 0.02 | impurity at RRT 0.96 ([3]; Initial): 0.09 | impurity at RRT 1.10 (2-Chloro-6-methylaniline) ([3]; Initial): 0.02 | impurity at RRT 1.31 (DAS-6) ([3]; Initial): 0.02
